Laboratory results from the supplement of paper PMC12076712.

Columns and labels:
Assay in all cases: pIC50, kinobeads binding competition
MYLK = MYLK (UniProt Q15746); details: cell material: Lysate mix
Summary of the method: (§1)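 Fold changes relative to vehicle, from biological duplicates, were fitted with logistic dose-response models in the R drc package to give pIC50. These fold changes came from TMT10 LC-MS/MS quantification of digested Kinobeads-bound proteins. Compound was applied at nine concentrations (top 30 μM) either to live Jurkat cells in 1:4 steps for 60 min at 37 °C before lysis, or to Jurkat lysate or a 1:1:1:1 HEK293/K-562/HepG2/placenta lysate mix in 1:5 steps for 60 min at 4 °C.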

STK33 = STK33 (UniProt Q9BYT3)
Summary of the method: as §1

TAOK1 = biological target: T1, TAOK1 (UniProt Q7L7X3)
T1 sequence (whole entry): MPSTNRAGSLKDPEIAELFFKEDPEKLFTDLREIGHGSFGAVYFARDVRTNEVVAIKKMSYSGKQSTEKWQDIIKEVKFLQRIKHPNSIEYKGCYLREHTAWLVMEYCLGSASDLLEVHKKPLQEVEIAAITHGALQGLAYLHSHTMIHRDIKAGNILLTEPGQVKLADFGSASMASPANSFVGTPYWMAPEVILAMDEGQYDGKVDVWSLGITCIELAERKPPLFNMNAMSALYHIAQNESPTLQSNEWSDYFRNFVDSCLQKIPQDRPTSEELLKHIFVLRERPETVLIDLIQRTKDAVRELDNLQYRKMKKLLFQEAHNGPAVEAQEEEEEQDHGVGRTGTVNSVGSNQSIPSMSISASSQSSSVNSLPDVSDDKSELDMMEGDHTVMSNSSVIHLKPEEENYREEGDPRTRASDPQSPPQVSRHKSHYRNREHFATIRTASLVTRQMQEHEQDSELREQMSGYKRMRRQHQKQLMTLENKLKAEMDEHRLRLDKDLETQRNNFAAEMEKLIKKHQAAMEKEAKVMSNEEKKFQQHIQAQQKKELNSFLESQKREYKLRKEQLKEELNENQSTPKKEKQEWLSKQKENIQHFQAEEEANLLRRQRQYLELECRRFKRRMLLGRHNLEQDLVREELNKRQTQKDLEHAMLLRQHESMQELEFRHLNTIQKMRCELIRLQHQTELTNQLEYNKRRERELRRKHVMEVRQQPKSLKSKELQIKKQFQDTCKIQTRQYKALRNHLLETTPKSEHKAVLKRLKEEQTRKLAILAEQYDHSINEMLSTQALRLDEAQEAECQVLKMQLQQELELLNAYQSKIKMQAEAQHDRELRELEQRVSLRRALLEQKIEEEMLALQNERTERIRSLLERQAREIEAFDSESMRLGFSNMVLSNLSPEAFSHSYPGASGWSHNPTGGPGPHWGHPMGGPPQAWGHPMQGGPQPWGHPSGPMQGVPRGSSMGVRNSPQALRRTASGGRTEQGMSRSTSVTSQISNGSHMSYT
Summary of the method: as §1

TTK = biological target: T2, TTK (UniProt P33981)
T2 sequence (whole entry): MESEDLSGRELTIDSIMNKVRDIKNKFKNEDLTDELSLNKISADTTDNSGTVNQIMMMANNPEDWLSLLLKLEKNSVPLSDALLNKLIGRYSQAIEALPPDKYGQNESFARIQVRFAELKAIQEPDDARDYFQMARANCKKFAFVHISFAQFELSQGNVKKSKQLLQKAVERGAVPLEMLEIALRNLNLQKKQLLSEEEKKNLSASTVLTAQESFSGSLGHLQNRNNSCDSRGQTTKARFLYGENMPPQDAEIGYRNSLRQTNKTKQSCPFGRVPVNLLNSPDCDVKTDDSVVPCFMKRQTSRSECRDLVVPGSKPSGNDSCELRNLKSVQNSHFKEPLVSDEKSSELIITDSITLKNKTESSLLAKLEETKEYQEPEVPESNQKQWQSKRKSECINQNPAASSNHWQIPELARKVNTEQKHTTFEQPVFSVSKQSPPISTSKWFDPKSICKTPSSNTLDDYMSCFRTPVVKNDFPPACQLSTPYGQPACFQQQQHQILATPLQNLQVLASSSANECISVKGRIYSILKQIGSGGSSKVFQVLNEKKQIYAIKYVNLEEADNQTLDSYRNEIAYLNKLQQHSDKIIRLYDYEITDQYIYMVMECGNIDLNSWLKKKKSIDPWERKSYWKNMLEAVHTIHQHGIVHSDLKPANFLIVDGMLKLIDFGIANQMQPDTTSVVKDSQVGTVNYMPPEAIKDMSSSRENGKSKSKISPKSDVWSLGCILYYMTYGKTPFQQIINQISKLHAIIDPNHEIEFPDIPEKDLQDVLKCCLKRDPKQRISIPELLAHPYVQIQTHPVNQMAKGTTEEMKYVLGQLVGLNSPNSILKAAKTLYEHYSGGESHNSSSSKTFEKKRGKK
Summary of the method: as §1

UniProt P19784 = biological target: UniProt P19784
Summary of the method: as §1

UniProt Q96GD4 = biological target: UniProt Q96GD4
Summary of the method: as §1

In the case of `CCNC(=O)c1cc(Nc2cc(C)[nH]n2)nc(N2CCN(Cc3ccc(S(=O)(=O)F)cc3)CC2)n1`, the pIC50 (MYLK) is reported as < 4.52, the pIC50 (STK33; cell material: Lysate mix) is reported as < 4.52 and the pIC50 (TAOK1; cell material: Lysate mix) is reported as < 4.52. The pIC50 (TTK; cell material: Lysate mix) was < 4.52, the pIC50 (UniProt P19784; cell material: Lysate mix) was 5.1 and the pIC50 (UniProt Q96GD4; cell material: Lysate mix) was 6.13.
With `CCNC(=O)c1cc(Nc2cc(C3CC3)[nH]n2)nc(N2CCN(Cc3ccc(S(=O)(=O)F)cc3)CC2)n1` the pIC50 (MYLK) was < 4.52, the pIC50 (STK33; cell material: Lysate mix) was 5.67 and the pIC50 (TAOK1; cell material: Lysate mix) was < 4.52. For the same molecule, the pIC50 (TTK; cell material: Lysate mix) was < 4.52, the pIC50 (UniProt P19784; cell material: Lysate mix) was 5.47 and the pIC50 (UniProt Q96GD4; cell material: Lysate mix) was 5.94.
In the case of `Cc1cc(Nc2cc(C(=O)NCCNC(=O)OC3CC/C=C/CCC3)nc(N3CCN(Cc4ccc(S(=O)(=O)F)cc4)CC3)n2)n[nH]1` (stereo not given), the pIC50 (MYLK) is reported as < 4.52, the pIC50 (STK33; cell material: Lysate mix) is reported as < 4.52 and the pIC50 (TAOK1; cell material: Lysate mix) is reported as 5.87. For the same molecule, the pIC50 (TTK; cell material: Lysate mix) was < 4.52, the pIC50 (UniProt P19784; cell material: Lysate mix) was < 4.52 and the pIC50 (UniProt Q96GD4; cell material: Lysate mix) was 4.92.
In the case of `C#CCNC(=O)c1cc(Nc2cc(C3CC3)[nH]n2)nc(N2CCN(Cc3ccc(S(=O)(=O)F)cc3)CC2)n1`, the pIC50 (MYLK) is reported as < 4.52, the pIC50 (STK33; cell material: Jurkat cells) is reported as 6.2 and the pIC50 (STK33; cell material: Jurkat lysate) is reported as 5.12. The pIC50 (STK33; cell material: Lysate mix) was 5.82, the pIC50 (TAOK1; cell material: Jurkat cells) was 5.6 and the pIC50 (TAOK1; cell material: Jurkat lysate) was < 4.52. For the same molecule, the pIC50 (TAOK1; cell material: Lysate mix) was < 4.52, the pIC50 (TTK; cell material: Jurkat cells) was 5.56 and the pIC50 (TTK; cell material: Jurkat lysate) was < 4.52. The pIC50 (TTK; cell material: Lysate mix) was < 4.52, the pIC50 (UniProt P19784; cell material: Jurkat cells) was 5.66 and the pIC50 (UniProt P19784; cell material: Jurkat lysate) was < 4.52. For the same molecule, the pIC50 (UniProt P19784; cell material: Lysate mix) was 4.96, the pIC50 (UniProt Q96GD4; cell material: Jurkat cells) was 6.67 and the pIC50 (UniProt Q96GD4; cell material: Jurkat lysate) was 5.72. The pIC50 (UniProt Q96GD4; cell material: Lysate mix) was 6.22.
`C#CCNC(=O)c1cc(Nc2cc(C)[nH]n2)nc(N2CCN(Cc3ccc(S(=O)(=O)F)cc3)CC2)n1` was tested, and the pIC50 (MYLK) was < 4.52, the pIC50 (STK33; cell material: Lysate mix) was < 4.52 and the pIC50 (TAOK1; cell material: Lysate mix) was < 4.52. For the same molecule, the pIC50 (TTK; cell material: Lysate mix) was < 4.52, the pIC50 (UniProt P19784; cell material: Lysate mix) was 4.78 and the pIC50 (UniProt Q96GD4; cell material: Lysate mix) was 5.94.
In the case of `O=C(NCCNC(=O)c1cc(Nc2cc(C3CC3)[nH]n2)nc(N2CCN(Cc3ccc(S(=O)(=O)F)cc3)CC2)n1)OC1CC/C=C/CCC1` (stereo not given), the pIC50 (MYLK) is reported as < 4.52, the pIC50 (STK33; cell material: Jurkat cells) is reported as 5.76 and the pIC50 (STK33; cell material: Jurkat lysate) is reported as < 4.52. The pIC50 (STK33; cell material: Lysate mix) was < 4.52, the pIC50 (TAOK1; cell material: Jurkat cells) was 5.96 and the pIC50 (TAOK1; cell material: Jurkat lysate) was 5.65. For the same molecule, the pIC50 (TAOK1; cell material: Lysate mix) was 6.1, the pIC50 (TTK; cell material: Jurkat cells) was < 4.52 and the pIC50 (TTK; cell material: Jurkat lysate) was < 4.52. For the same molecule, the pIC50 (TTK; cell material: Lysate mix) was < 4.52, the pIC50 (UniProt P19784; cell material: Jurkat cells) was 4.7 and the pIC50 (UniProt P19784; cell material: Jurkat lysate) was < 4.52. For the same molecule, the pIC50 (UniProt P19784; cell material: Lysate mix) was < 4.52, the pIC50 (UniProt Q96GD4; cell material: Jurkat cells) was 6.39 and the pIC50 (UniProt Q96GD4; cell material: Lysate mix) was 4.98.
